Experiment: Screening of NIS: lactam solubility in water or water + non-ionic surfactant additive, quantified by HPLC
Assay type: physicochemical
Set-up: key to Solubility Increase vs water alone: fold: lactam dissolved in water+additive / lactam dissolved in water
Conditions: for Mean Lactam Level in Solution (ppm): 48 hours agitation
Experimental: The following representative example uses 4-(4-chlorophenyl)-5-methylene-pyrrol-2-one.
Excess solid lactam (˜3 mg) was placed in a Whatman® Mini Uniprep sample vial, fitted with a 0.45 um nylon filter. Water or water+additive (NIS) (500 μL) was added the mixture shaken and tapped briefly to initially disperse the solid and the mixture then agitated for 48 hours using a plate shaker fitted with a vial holder. After 48 hours, the solid was removed from the system by pressing down the plunger with integral filter on the vial. This removes the solid and provides filtered solution within the inner chamber which is then ready for analysis.
The level of lactam dissolved in solution was quantified using HPLC analysis. Samples were analysed on an Agilent 1200® series HPLC fitted with a Thermo Hypersil Gold® C18 column (15×2.1×3 μm), isocratic elution with 60/40 methanol/water (+0.1% Formic Acid), 0.4 mL/min flow rate, using a DAD detector at 285 nm. The lactam tested has a retention time of ˜2.8 minutes.
For each additive, the absolute level of lactam in solution was measured and reported as an increase in solubility of lactam relative to water alone.
Each test surfactant solution was tested in triplicate and the mean value of lactam in solution calculated. Values of solubility were quoted as the improvement in aqueous solubility vs water alone (i.e. mean level of lactam dissolved in water+solvent/mean level of lactam dissolved in water) to allow comparison between screens conducted on different days.

[1] = Neodol 25-7, 0% additive in water
[2] = Neodol 25-7, 0.5% additive in water
[3] = Neodol 25-7, 1% additive in water
[4] = Neodol 25-7, 2% additive in water
[5] = Neodol 25-7, 5% additive in water
[6] = Neodol 25-7, 10% additive in water
[7] = Neodol 25-7, 20% additive in water
[8] = Tween 20, 0.5% additive in water
[9] = Tween 20, 10% additive in water
[10] = Tween 20, 20% additive in water
[11] = Tween 80, 0.5% additive in water
[12] = Tween 80, 10% additive in water

Solubility Increase vs water alone [1]: 1.0
Mean Lactam Level in Solution (ppm) [1]: 2.4 ppm
Solubility Increase vs water alone [2]: 48.3
Mean Lactam Level in Solution (ppm) [2]: 116.0 ppm
Solubility Increase vs water alone [3]: 84.7
Mean Lactam Level in Solution (ppm) [3]: 203.2 ppm
Solubility Increase vs water alone [4]: 162.7
Mean Lactam Level in Solution (ppm) [4]: 390.4 ppm
Solubility Increase vs water alone [5]: 251.4
Mean Lactam Level in Solution (ppm) [5]: 603.3 ppm
Solubility Increase vs water alone [6]: 255.2
Mean Lactam Level in Solution (ppm) [6]: 612.5 ppm
Solubility Increase vs water alone [7]: 189.8
Mean Lactam Level in Solution (ppm) [7]: 455.6 ppm
Solubility Increase vs water alone (Tween 20, 0% additive in water): 1.0
Mean Lactam Level in Solution (ppm) (Tween 20, 0% additive in water): 1.7 ppm
Solubility Increase vs water alone [8]: 36.9
Mean Lactam Level in Solution (ppm) [8]: 61.6 ppm
Solubility Increase vs water alone (Tween 20, 1% additive in water): 70.9
Mean Lactam Level in Solution (ppm) (Tween 20, 1% additive in water): 118.3 ppm
Solubility Increase vs water alone (Tween 20, 2% additive in water): 135.8
Mean Lactam Level in Solution (ppm) (Tween 20, 2% additive in water): 226.5 ppm
Solubility Increase vs water alone (Tween 20, 5% additive in water): 310.7
Mean Lactam Level in Solution (ppm) (Tween 20, 5% additive in water): 518.3 ppm
Solubility Increase vs water alone [9]: 497.3
Mean Lactam Level in Solution (ppm) [9]: 829.6 ppm
Solubility Increase vs water alone [10]: 927.0
Mean Lactam Level in Solution (ppm) [10]: 1546.3 ppm
Solubility Increase vs water alone (Tween 80, 0% additive in water): 1.00
Mean Lactam Level in Solution (ppm) (Tween 80, 0% additive in water): 6.0 ppm
Solubility Increase vs water alone [11]: 6.92
Mean Lactam Level in Solution (ppm) [11]: 41.5 ppm
Solubility Increase vs water alone (Tween 80, 1% additive in water): 12.51
Mean Lactam Level in Solution (ppm) (Tween 80, 1% additive in water): 75.0 ppm
Solubility Increase vs water alone (Tween 80, 2% additive in water): 20.56
Mean Lactam Level in Solution (ppm) (Tween 80, 2% additive in water): 123.3 ppm
Solubility Increase vs water alone (Tween 80, 5% additive in water): 34.74
Mean Lactam Level in Solution (ppm) (Tween 80, 5% additive in water): 208.4 ppm
Solubility Increase vs water alone [12]: 65.23
Mean Lactam Level in Solution (ppm) [12]: 391.4 ppm
Compound: C=C1NC(=O)C=C1c1ccc(Cl)cc1 [Ref. 488, 4-(4-chlorophenyl)-5-methylene-pyrrol-2-one]

— US10888087B2, “Lactam solubility” (Conopco, Inc., priority 2015, dated 2021)
